“And” between values parts separate entries of the source, which are not always exact repeats. Equal entries are not always repeated. Inconclusive results and toxic doses are left out. Rule as the data show it: active = T/C of 150% or more; inactive = T/C below 125%.
System: L1210 leukemia ip in BDF1 mice, survival T/C
Assay: NCI In Vivo Anticancer Drug Screen. Data for tumor model L1210 Leukemia (intraperitoneal) in B6D2F1 (BDF1) mice
Conditions: endpoint: mean survival time, higher = longer survival
Summary of the method: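 Read-out is survival time, reported as the treated-group measurement over the vehicle-control measurement.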

[1] = dose: 100.0 mg/kg/injection, schedule: Q04DX003 (ip), vehicle: saline with Tween-80
[2] = dose: 200.0 mg/kg/injection, schedule: Q04DX003 (ip), vehicle: saline with Tween-80
[3] = dose: 400.0 mg/kg/injection, schedule: Q04DX003 (ip), vehicle: saline with Tween-80
[4] = dose: 25.0 mg/kg/injection, schedule: Q04DX002 (ip), vehicle: saline
[5] = dose: 100.0 mg/kg/injection, schedule: Q04DX002 (ip), vehicle: saline
[6] = dose: 100.0 mg/kg/injection, schedule: Q01DX001 (ip), vehicle: carboxymethylcellulose (CMC)
[7] = dose: 200.0 mg/kg/injection, schedule: Q01DX001 (ip), vehicle: carboxymethylcellulose (CMC)
[8] = dose: 400.0 mg/kg/injection, schedule: Q01DX001 (ip), vehicle: carboxymethylcellulose (CMC)
[9] = dose: 100.0 mg/kg/injection, schedule: Q04DX003 (ip), vehicle: Klucel (hydroxypropylcellulose) (HPC)
[10] = dose: 200.0 mg/kg/injection, schedule: Q04DX003 (ip), vehicle: Klucel (hydroxypropylcellulose) (HPC)
[11] = dose: 400.0 mg/kg/injection, schedule: Q04DX003 (ip), vehicle: Klucel (hydroxypropylcellulose) (HPC)
[12] = dose: 100.0 mg/kg/injection, schedule: Q04DX003 (ip), vehicle: saline
[13] = dose: 200.0 mg/kg/injection, schedule: Q04DX003 (ip), vehicle: saline
[14] = dose: 400.0 mg/kg/injection, schedule: Q04DX003 (ip), vehicle: saline
[15] = dose: 100.0 mg/kg/injection, schedule: Q01DX009 (ip), vehicle: saline
[16] = dose: 50.0 mg/kg/injection, schedule: Q04DX003 (ip), vehicle: saline

Measured: T/C

C1CC2CCCC3CC(B4OCCO4)CC(C1)C23 (stereo not drawn) (tested in a mixture with another compound)
inactive: dose: 100.0 mg/kg/injection, schedule: Q01DX009 (ip), vehicle: other 101 % of control | [1] 97 % of control | dose: 200.0 mg/kg/injection, schedule: Q01DX009 (ip), vehicle: other 105 % of control | [2] 92 % of control | dose: 400.0 mg/kg/injection, schedule: Q01DX009 (ip), vehicle: other 108 % of control | [3] 106 % of control

O=C(NCCl)Nc1ccccc1
inactive: [4] 106 % of control | dose: 50.0 mg/kg/injection, schedule: Q04DX002 (ip), vehicle: saline 106 % of control | dose: 100.0 mg/kg/injection, schedule: Q04DX002 (ip), vehicle: saline + alcohol 100 % of control | [5] 100 % of control

C=C(C)COc1c(C)cc(C)cc1[N+](=O)[O-]
inactive: [1] 96 % of control | [2] 100 % of control | [3] 97 % of control

O=C(c1ccccc1)c1cc(CN(CCCl)CCCl)c(O)cc1O
inactive: [6] 106 % of control | [7] 117 % of control | [8] 122 % of control

O=[N+]([O-])c1ccc2nc(NCCCO)c3ccccc3c2c1
inactive: [9] 120 % of control | [10] 124 % of control | [11] 96 % of control

Cc1ccc2c(ccc(C)[n+]2C)c1
inactive: dose: 37.5 mg/kg/injection, schedule: Q01DX009 (ip), vehicle: acetone 117 % of control | dose: 37.5 mg/kg/injection, schedule: Q01DX009 (ip), vehicle: saline 110 % of control and 112 % of control | dose: 75.0 mg/kg/injection, schedule: Q01DX001 (ip), vehicle: saline 100 % of control | dose: 75.0 mg/kg/injection, schedule: Q01DX009 (ip), vehicle: saline 118 % of control and 121 % of control | dose: 150.0 mg/kg/injection, schedule: Q01DX001 (ip), vehicle: saline 108 % of control | dose: 150.0 mg/kg/injection, schedule: Q01DX009 (ip), vehicle: acetone 102 % of control | dose: 300.0 mg/kg/injection, schedule: Q01DX001 (ip), vehicle: saline 105 % of control

Cc1ccc(C(C)C)c(OCCN2CC=CC2)c1
inactive: dose: 100.0 mg/kg/injection, schedule: Q01DX001 (ip), vehicle: saline 98 % of control | dose: 200.0 mg/kg/injection, schedule: Q01DX001 (ip), vehicle: saline 94 % of control

CC(C)/C=C/C1(C(C)C)C(=O)NC(=O)NC1=O
inactive: dose: 75.0 mg/kg/injection, schedule: Q01DX001 (ip), vehicle: carboxymethylcellulose (CMC) 94 % of control | dose: 150.0 mg/kg/injection, schedule: Q01DX001 (ip), vehicle: carboxymethylcellulose (CMC) 94 % of control

CC(C)(c1cccs1)c1cscc1C(=O)O
inactive: [12] 108 % of control | [13] 113 % of control | [14] 105 % of control

CCOC(=O)C1CC2(c3ccccc3)C(c3ccccc3)=C(c3ccccc3)C1(c1ccccc1)C2O (stereo not drawn)
inactive: dose: 50.0 mg/kg/injection, schedule: Q01DX001 (ip), vehicle: carboxymethylcellulose (CMC) 94 % of control | [6] 94 % of control | [7] 103 % of control | [8] 94 % of control

O=C(O)CNC(=O)NCO
inactive: dose: 100.0 mg/kg/injection, schedule: Q01DX001 (ip), vehicle: acetone 100 % of control | dose: 200.0 mg/kg/injection, schedule: Q01DX001 (ip), vehicle: acetone 100 % of control | dose: 400.0 mg/kg/injection, schedule: Q01DX001 (ip), vehicle: acetone 103 % of control

CCOC(=O)c1cnc2ccccn2c1=O
inactive: dose: 50.0 mg/kg/injection, schedule: Q01DX009 (ip), vehicle: saline 96 % of control | dose: 100.0 mg/kg/injection, schedule: Q01DX001 (ip), vehicle: saline with Tween-80 92 % of control | [15] 93 % of control | [12] 92 % of control | dose: 200.0 mg/kg/injection, schedule: Q01DX001 (ip), vehicle: saline with Tween-80 94 % of control | dose: 200.0 mg/kg/injection, schedule: Q01DX009 (ip), vehicle: saline 101 % of control | [13] 94 % of control

CC(C)O/N=C(/N)N=C(N)N
inactive: dose: 100.0 mg/kg/injection, schedule: Q01DX001 (ip), vehicle: other 98 % of control | dose: 200.0 mg/kg/injection, schedule: Q01DX001 (ip), vehicle: other 106 % of control

Clc1ccc2c(c1)C(Nc1cc3c4ccccc4ccc3c3ccccc13)c1cc(Cl)cc(Cl)c1-2 (stereo not drawn)
inactive: dose: 100.0 mg/kg/injection, schedule: Q01DX009 (ip), vehicle: Klucel (hydroxypropylcellulose) (HPC) 88 % of control | [9] 90 % of control | dose: 200.0 mg/kg/injection, schedule: Q01DX009 (ip), vehicle: Klucel (hydroxypropylcellulose) (HPC) 88 % of control | [10] 95 % of control | dose: 400.0 mg/kg/injection, schedule: Q01DX009 (ip), vehicle: Klucel (hydroxypropylcellulose) (HPC) 86 % of control | [11] 93 % of control

COc1cc2ccc3cc[n+](C)cc3c2cc1OC
inactive: [16] 104 % of control | dose: 66.0 mg/kg/injection, schedule: Q01DX009 (ip), vehicle: saline 121 % of control | [15] 110 % of control | [12] 98 % of control and 104 % of control | dose: 150.0 mg/kg/injection, schedule: Q01DX009 (ip), vehicle: saline 96 % of control | [13] 110 % of control | [14] 102 % of control

O=C(O)C(F)(F)F.[Cu+2]
inactive: dose: 12.5 mg/kg/injection, schedule: Q04DX002 (ip), vehicle: saline 98 % of control | [4] 95 % of control

ClCCOCC1CO1 (stereo not drawn)
inactive: dose: 25.0 mg/kg/injection, schedule: Q04DX003 (ip), vehicle: saline 92 % of control | [16] 88 % of control | [12] 97 % of control

OCC(O)C(O)C(O)CO (stereo not drawn)
inactive: [5] 107 % of control | dose: 200.0 mg/kg/injection, schedule: Q04DX002 (ip), vehicle: saline 104 % of control | dose: 400.0 mg/kg/injection, schedule: Q04DX002 (ip), vehicle: saline 96 % of control

NC(=O)N/N=C(/c1ccccc1)c1ccccn1
inactive: dose: 100.0 mg/kg/injection, schedule: Q01DX009 (ip), vehicle: saline with Tween-80 101 % of control | dose: 200.0 mg/kg/injection, schedule: Q01DX009 (ip), vehicle: saline with Tween-80 100 % of control | dose: 400.0 mg/kg/injection, schedule: Q01DX009 (ip), vehicle: saline with Tween-80 101 % of control
